# Assays:
# Assay type in all cases: cell-based
# [1] = system: Escherichia coli K-12 MG1655 evolved isolates and knockout mutants; test: Biolector growth screening of evolved isolates and reconstructed (knockout) mutants in glutaric or adipic acid
# Method: Biological triplicate cultures of each strain were grown to saturation overnight in 96 well deepwell plates containing 300 μL M9+1% glucose. The next day, cells were diluted 1:10 in deionized water in a clear 96 well plate and the OD600 was measured on a BioTek plate reader. 48 well FlowerPlates containing a final volume of 1.4 mL of M9+1/o glucose (plus relevant chemical) were inoculated to OD600 0.03 (with plate reader pathlength, 200 μL volume) with the overnight culture and sealed with Breathseal film. Light backscatter intensity was monitored in a Biolector microbioreactor system at 37° C. with 1000 rpm shaking.
# Each re-sequenced isolate was characterized using the Biolector system for growth at the screening concentration of chemical (47.5 g/L glutaric acid or 50 g/L adipic acid) in biological triplicates.
# [2] = system: Escherichia coli K-12 MG1655 knockout mutants; test: Growth Profiler growth screening of K-12 MG1655 single, double and triple knockout mutants in glutaric or adipic acid
# [3] = system: Escherichia coli K-12 MG1655; test: Screening for tolerance in wild-type cells: growth in varying concentrations of neutralized diacid, Biolector; details: for tlag (lag time), mean / μ (growth rate), mean: neutralized with sodium hydroxide
# Method: Escherichia coli K-12 MG1655 was grown overnight in M9 minimal medium+1% glucose and subcultured the following morning to an initial OD600 of 0.05 in M9+1% glucose. Cells were grown to mid-exponential phase (OD600 0.7-1.0) and were back-diluted with fresh medium to an OD600 of 0.7. The diluted cells were used to inoculate M9+1% glucose containing varying concentrations of glutaric acid or adipic acid which were neutralized to pH 7.0 with sodium hydroxide, and growth was measured in FlowerPlates in a Biolector microbioreactor system (m2p-labs) at 37° C. with 1000 rpm shaking. The culture volume in each well was 1.4 mL.
# [4] = strain GLUT1-3, M9 + 47.5 g/L glutaric acid (neutralized with sodium hydroxide)
# [5] = strain GLUT1-3, M9 + 47.5 g/L glutaric acid (neutralized), knockout experiment (Table 14)
# [6] = strain GLUT1-9, M9 + 47.5 g/L glutaric acid (neutralized with sodium hydroxide)
# [7] = strain GLUT1-10, M9 + 47.5 g/L glutaric acid (neutralized with sodium hydroxide)
# [8] = strain GLUT1-10, M9 + 47.5 g/L glutaric acid (neutralized), knockout experiment (Table 14)
# [9] = strain GLUT2-1, M9 + 47.5 g/L glutaric acid (neutralized with sodium hydroxide)
# [10] = strain GLUT2-9, M9 + 47.5 g/L glutaric acid (neutralized with sodium hydroxide)
# [11] = strain GLUT2-10, M9 + 47.5 g/L glutaric acid (neutralized with sodium hydroxide)
# [12] = strain GLUT3-5, M9 + 47.5 g/L glutaric acid (neutralized with sodium hydroxide)
# [13] = strain GLUT3-7, M9 + 47.5 g/L glutaric acid (neutralized with sodium hydroxide)
# [14] = strain GLUT3-9, M9 + 47.5 g/L glutaric acid (neutralized with sodium hydroxide)
# [15] = strain GLUT4-1, M9 + 47.5 g/L glutaric acid (neutralized with sodium hydroxide)
# [16] = strain GLUT4-1, M9 + 47.5 g/L glutaric acid (neutralized), knockout experiment (Table 14)
# [17] = strain GLUT4-4, M9 + 47.5 g/L glutaric acid (neutralized with sodium hydroxide)
# [18] = strain GLUT4-10, M9 + 47.5 g/L glutaric acid (neutralized with sodium hydroxide)
# [19] = strain GLUT5-4, M9 + 47.5 g/L glutaric acid (neutralized with sodium hydroxide)
# [20] = strain GLUT5-5, M9 + 47.5 g/L glutaric acid (neutralized with sodium hydroxide)
# [21] = strain GLUT6-4, M9 + 47.5 g/L glutaric acid (neutralized with sodium hydroxide)
# [22] = strain GLUT6-5, M9 + 47.5 g/L glutaric acid (neutralized with sodium hydroxide)
# [23] = strain GLUT6-10, M9 + 47.5 g/L glutaric acid (neutralized with sodium hydroxide)
# [24] = strain GLUT7-2, M9 + 47.5 g/L glutaric acid (neutralized with sodium hydroxide)
# [25] = strain GLUT7-6, M9 + 47.5 g/L glutaric acid (neutralized with sodium hydroxide)
# [26] = strain GLUT7-7, M9 + 47.5 g/L glutaric acid (neutralized with sodium hydroxide)
# [27] = strain GLUT8-5, M9 + 47.5 g/L glutaric acid (neutralized with sodium hydroxide)
# [28] = strain GLUT8-6, M9 + 47.5 g/L glutaric acid (neutralized with sodium hydroxide)
# [29] = strain GLUT8-6, M9 + 47.5 g/L glutaric acid (neutralized), knockout experiment (Table 14)
# [30] = strain GLUT8-9, M9 + 47.5 g/L glutaric acid (neutralized with sodium hydroxide)
# [31] = strain MG1655, M9 + 47.5 g/L glutaric acid (neutralized with sodium hydroxide)
# [32] = strain MG1655, M9 + 47.5 g/L glutaric acid (neutralized), knockout experiment (Table 14)
# [33] = strain MG1655 kgtP::kan, M9 + 47.5 g/L glutaric acid (neutralized)
# [34] = strain MG1655 proV::kan, M9 + 47.5 g/L glutaric acid (neutralized)
# [35] = strain MG1655 ybjL::kan, M9 + 47.5 g/L glutaric acid (neutralized)
# [36] = strain MG1655 ΔkgtP proV::kan, M9 + 47.5 g/L glutaric acid (neutralized)
# [37] = strain MG1655 ΔkgtP sspA::kan, M9 + 47.5 g/L glutaric acid (neutralized)
# [38] = strain MG1655 ΔkgtP ybjL::kan, M9 + 47.5 g/L glutaric acid (neutralized)
# [39] = strain MG1655 ΔkgtP ΔproV ybjL::kan, M9 + 47.5 g/L glutaric acid (neutralized)
# [40] = strain MG1655, M9 + 23.8 g/L glutarate (neutralized)
# [41] = strain MG1655, M9 + 47.5 g/L glutarate (neutralized)
# [42] = strain MG1655 kgtP::kan, M9 + 23.8 g/L glutarate (neutralized)
# [43] = strain MG1655 kgtP::kan, M9 + 47.5 g/L glutarate (neutralized)
# [44] = strain MG1655 ΔkgtP nagC::kan, M9 + 23.8 g/L glutarate (neutralized)
# [45] = strain MG1655 ΔkgtP nagC::kan, M9 + 47.5 g/L glutarate (neutralized)
# [46] = strain MG1655 ΔkgtP proV::kan, M9 + 23.8 g/L glutarate (neutralized)
# [47] = strain MG1655 ΔkgtP rnb::kan, M9 + 23.8 g/L glutarate (neutralized)
# [48] = strain MG1655 ΔkgtP rnb::kan, M9 + 47.5 g/L glutarate (neutralized)
# [49] = strain MG1655 ΔkgtP sspA::kan, M9 + 23.8 g/L glutarate (neutralized)
# [50] = strain MG1655 ΔkgtP ΔproV nagC::kan, M9 + 23.8 g/L glutarate (neutralized)
# [51] = strain MG1655 ΔkgtP ΔproV nagC::kan, M9 + 47.5 g/L glutarate (neutralized)
structure (smiles),measurement,setting,value
O=C(O)CCCC(=O)O [glutaric acid],mean growth rate μ,[1]; [4],0.304 h⁻¹
same,mean lag time tlag,[1]; [4],5.1 h
same,mean growth rate μ,[1]; [5],0.278 h⁻¹
same,mean lag time tlag,[1]; [5],4.6 h
same,mean growth rate μ,[1]; [6],0.319 h⁻¹
same,mean lag time tlag,[1]; [6],6.4 h
same,mean growth rate μ,[1]; [7],0.458 h⁻¹
same,mean lag time tlag,[1]; [7],11.3 h
same,mean growth rate μ,[1]; [8],0.442 h⁻¹
same,mean lag time tlag,[1]; [8],10.8 h
same,mean growth rate μ,[1]; [9],0.276 h⁻¹
same,mean lag time tlag,[1]; [9],6.8 h
same,mean growth rate μ,[1]; [10],0.298 h⁻¹
same,mean lag time tlag,[1]; [10],6.5 h
same,mean growth rate μ,[1]; [11],0.378 h⁻¹
same,mean lag time tlag,[1]; [11],6.5 h
same,mean growth rate μ,[1]; [12],0.284 h⁻¹
same,mean lag time tlag,[1]; [12],5.6 h
same,mean growth rate μ,[1]; [13],0.277 h⁻¹
same,mean lag time tlag,[1]; [13],5.6 h
same,mean growth rate μ,[1]; [14],0.324 h⁻¹
same,mean lag time tlag,[1]; [14],8.3 h
same,mean growth rate μ,[1]; [15],0.279 h⁻¹
same,mean lag time tlag,[1]; [15],6.2 h
same,mean growth rate μ,[1]; [16],0.312 h⁻¹
same,mean lag time tlag,[1]; [16],7.1 h
same,mean growth rate μ,[1]; [17],0.287 h⁻¹
same,mean lag time tlag,[1]; [17],6.6 h
same,mean growth rate μ,[1]; [18],0.297 h⁻¹
same,mean lag time tlag,[1]; [18],6.9 h
same,mean growth rate μ,[1]; [19],0.438 h⁻¹
same,mean lag time tlag,[1]; [19],17.0 h
same,mean growth rate μ,[1]; [20],0.349 h⁻¹
same,mean lag time tlag,[1]; [20],14.5 h
same,mean growth rate μ,[1]; [21],0.277 h⁻¹
same,mean lag time tlag,[1]; [21],5.9 h
same,mean growth rate μ,[1]; [22],0.300 h⁻¹
same,mean lag time tlag,[1]; [22],6.5 h
same,mean growth rate μ,[1]; [23],0.341 h⁻¹
same,mean lag time tlag,[1]; [23],6.7 h
same,mean growth rate μ,[1]; [24],0.318 h⁻¹
same,mean lag time tlag,[1]; [24],6.6 h
same,mean growth rate μ,[1]; [25],0.318 h⁻¹
same,mean lag time tlag,[1]; [25],7.1 h
same,mean growth rate μ,[1]; [26],0.283 h⁻¹
same,mean lag time tlag,[1]; [26],7.8 h
same,mean growth rate μ,[1]; [27],0.322 h⁻¹
same,mean lag time tlag,[1]; [27],6.2 h
same,mean growth rate μ,[1]; [28],0.347 h⁻¹
same,mean lag time tlag,[1]; [28],7.1 h
same,mean growth rate μ,[1]; [29],0.402 h⁻¹
same,mean lag time tlag,[1]; [29],7.8 h
same,mean growth rate μ,[1]; [30],0.345 h⁻¹
same,mean lag time tlag,[1]; [30],7.4 h
same,mean growth rate μ,[1]; [31],0.103 h⁻¹
same,mean lag time tlag,[1]; [31],10.7 h
same,mean growth rate μ,[1]; [32],0.100 h⁻¹
same,mean lag time tlag,[1]; [32],10.4 h
same,mean growth rate μ,[1]; [33],0.181 h⁻¹
same,mean lag time tlag,[1]; [33],5.8 h
same,mean growth rate μ,[1]; [34],0.085 h⁻¹
same,mean lag time tlag,[1]; [34],0.6 h
same,mean growth rate μ,[1]; [35],0.126 h⁻¹
same,mean lag time tlag,[1]; [35],12.8 h
same,mean growth rate μ,[1]; [36],0.244 h⁻¹
same,mean lag time tlag,[1]; [36],6.5 h
same,mean growth rate μ,[1]; [37],0.256 h⁻¹
same,mean lag time tlag,[1]; [37],5.7 h
same,mean growth rate μ,[1]; [38],0.213 h⁻¹
same,mean lag time tlag,[1]; [38],6.0 h
same,mean growth rate μ,[1]; [39],0.300 h⁻¹
same,mean lag time tlag,[1]; [39],7.0 h
same,mean growth rate μ,[2]; [40],0.466 h⁻¹
same,mean lag time tlag,[2]; [40],7.4 h
same,mean growth rate μ,[2]; [41],0.101 h⁻¹
same,mean lag time tlag,[2]; [41],21.8 h
same,mean growth rate μ,[2]; [42],0.487 h⁻¹
same,mean lag time tlag,[2]; [42],6.1 h
same,mean growth rate μ,[2]; [43],0.191 h⁻¹
same,mean lag time tlag,[2]; [43],13.5 h
same,mean growth rate μ,[2]; [44],0.491 h⁻¹
same,mean lag time tlag,[2]; [44],6.7 h
same,mean growth rate μ,[2]; [45],0.179 h⁻¹
same,mean lag time tlag,[2]; [45],15.0 h
same,mean growth rate μ,[2]; [46],0.520 h⁻¹
same,mean lag time tlag,[2]; [46],6.2 h
same,mean growth rate μ,"[2]; strain MG1655 ΔkgtP proV::kan, M9 + 47.5 g/L glutarate (neutralized)",0.251 h⁻¹
same,mean growth rate μ,[2]; [47],0.505 h⁻¹
same,mean lag time tlag,[2]; [47],6.3 h
same,mean growth rate μ,[2]; [48],0.183 h⁻¹
same,mean lag time tlag,[2]; [48],13.6 h
same,mean growth rate μ,[2]; [49],0.473 h⁻¹
same,mean lag time tlag,[2]; [49],6.1 h
same,mean lag time tlag,"[2]; strain MG1655 ΔkgtP sspA::kan, M9 + 47.5 g/L glutarate (neutralized)",12.2 h
same,mean growth rate μ,[2]; [50],0.541 h⁻¹
same,mean lag time tlag,[2]; [50],6.6 h
same,mean growth rate μ,[2]; [51],0.215 h⁻¹
same,mean lag time tlag,[2]; [51],14.0 h
same,"tlag (lag time), mean",[3]; 10 g/L,2.0 h
same,"μ (growth rate), mean","[3]; 10 g/L, M9+1% glucose, 37° C",0.526 h⁻¹
same,"tlag (lag time), mean",[3]; 20 g/L,1.9 h
same,"μ (growth rate), mean",[3]; 20 g/L,0.377 h⁻¹
same,"tlag (lag time), mean",[3]; 30 g/L,0.6 h
same,"μ (growth rate), mean",[3]; 30 g/L,0.234 h⁻¹
same,"tlag (lag time), mean",[3]; 40 g/L,0.7 h
same,"μ (growth rate), mean",[3]; 40 g/L,0.132 h⁻¹
same,"tlag (lag time), mean",[3]; 50 g/L,15.9 h
same,"μ (growth rate), mean",[3]; 50 g/L,0.096 h⁻¹
same,"μ (growth rate), mean",[3]; 75 g/L,0.000 h⁻¹
same,maximum measured concentration at which exponentially growing K-12 MG1655 can grow,[3]; neutralized diacid in M9+1% glucose,50 g/L

# From patent publication US20230139445A1, “BACTERIAL CELLS WITH IMPROVED TOLERANCE TO DIACIDS” (priority 2016, published 2023)
